Test results: ChEMBL document CHEMBL1158409, “Discovery of 3,5-disubstituted-1H-pyrrolo[2,3-b]pyridines as potent inhibitors of the insulin-like growth factor-1 receptor (IGF-1R) tyrosine kinase” (Bioorg Med Chem Lett, 2009)

What was measured:
[1] = molecular target: T1, Insulin-like growth factor 1 receptor (Homo sapiens, UniProt P08069); test: Inhibition of GST-tagged human IGF1R expressed in Sf9-baculovirus system
[2] = molecular target: T1, Insulin-like growth factor 1 receptor; test: Inhibition of IGF1-induced human IGF1R phosphorylation expressed in mouse NIH-3T3 cells treated 2 hrs prior to IGF1 challenge by DELFIA
[3] = molecular target: Mitogen-activated protein kinase 10 (Homo sapiens, UniProt P53779); test: Inhibition of JNK3
[4] = molecular target: Tyrosine-protein kinase Lyn (Homo sapiens, UniProt P07948); test: Inhibition of LYN
[5] = molecular target: T2, Inhibitor of nuclear factor kappa-B kinase subunit beta (Homo sapiens, UniProt O14920); test: Inhibition of IKK2
T2 sequence (O14920 whole entry): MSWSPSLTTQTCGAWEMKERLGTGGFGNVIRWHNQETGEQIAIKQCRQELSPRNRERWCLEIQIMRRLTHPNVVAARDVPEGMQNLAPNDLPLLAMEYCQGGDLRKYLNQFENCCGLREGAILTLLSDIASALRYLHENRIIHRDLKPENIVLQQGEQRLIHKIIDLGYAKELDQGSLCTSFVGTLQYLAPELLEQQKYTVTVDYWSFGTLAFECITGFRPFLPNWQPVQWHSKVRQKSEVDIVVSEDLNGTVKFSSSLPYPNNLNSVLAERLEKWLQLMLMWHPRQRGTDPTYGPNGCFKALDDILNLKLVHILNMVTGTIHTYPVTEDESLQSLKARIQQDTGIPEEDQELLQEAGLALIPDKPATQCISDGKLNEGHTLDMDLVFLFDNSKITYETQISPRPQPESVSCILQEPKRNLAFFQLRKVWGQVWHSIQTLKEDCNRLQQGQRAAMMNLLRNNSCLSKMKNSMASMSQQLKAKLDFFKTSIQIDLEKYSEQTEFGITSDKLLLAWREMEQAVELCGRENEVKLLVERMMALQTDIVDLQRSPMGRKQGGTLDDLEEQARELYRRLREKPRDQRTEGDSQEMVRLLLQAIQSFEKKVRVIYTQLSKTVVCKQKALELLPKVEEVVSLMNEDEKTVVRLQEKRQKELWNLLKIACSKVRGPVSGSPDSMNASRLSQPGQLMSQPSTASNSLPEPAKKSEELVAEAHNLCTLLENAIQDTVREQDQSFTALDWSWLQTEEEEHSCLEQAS

[6] = molecular target: Mitogen-activated protein kinase 8 (Homo sapiens, UniProt P45983); test: Inhibition of JNK1
[7] = molecular target: Tyrosine-protein kinase SYK (Homo sapiens, UniProt P43405); test: Inhibition of SYK
[8] = molecular target: T3, Inhibitor of nuclear factor kappa-B kinase subunit alpha (Homo sapiens, UniProt O15111); test: Inhibition of IKK1
T3 sequence (O15111 whole entry): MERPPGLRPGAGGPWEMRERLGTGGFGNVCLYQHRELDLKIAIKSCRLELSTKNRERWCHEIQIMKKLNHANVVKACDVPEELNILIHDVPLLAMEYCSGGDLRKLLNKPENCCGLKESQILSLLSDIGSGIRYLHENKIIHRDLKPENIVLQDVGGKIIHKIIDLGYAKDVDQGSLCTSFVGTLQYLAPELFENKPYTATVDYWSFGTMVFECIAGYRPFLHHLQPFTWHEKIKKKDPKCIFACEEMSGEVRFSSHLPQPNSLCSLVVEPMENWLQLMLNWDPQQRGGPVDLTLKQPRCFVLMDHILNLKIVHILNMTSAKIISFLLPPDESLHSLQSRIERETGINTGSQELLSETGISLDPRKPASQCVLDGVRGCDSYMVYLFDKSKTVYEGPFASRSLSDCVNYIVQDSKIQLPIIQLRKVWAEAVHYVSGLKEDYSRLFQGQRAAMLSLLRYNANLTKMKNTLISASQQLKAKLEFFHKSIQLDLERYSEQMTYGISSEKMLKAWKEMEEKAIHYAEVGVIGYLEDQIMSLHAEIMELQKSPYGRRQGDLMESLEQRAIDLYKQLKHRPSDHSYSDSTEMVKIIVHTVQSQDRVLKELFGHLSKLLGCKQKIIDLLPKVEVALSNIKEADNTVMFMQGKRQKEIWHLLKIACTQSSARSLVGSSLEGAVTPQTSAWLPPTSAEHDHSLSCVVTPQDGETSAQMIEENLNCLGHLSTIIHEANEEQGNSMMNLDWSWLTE

T1 sequence (P08069 31-736 limits assumed): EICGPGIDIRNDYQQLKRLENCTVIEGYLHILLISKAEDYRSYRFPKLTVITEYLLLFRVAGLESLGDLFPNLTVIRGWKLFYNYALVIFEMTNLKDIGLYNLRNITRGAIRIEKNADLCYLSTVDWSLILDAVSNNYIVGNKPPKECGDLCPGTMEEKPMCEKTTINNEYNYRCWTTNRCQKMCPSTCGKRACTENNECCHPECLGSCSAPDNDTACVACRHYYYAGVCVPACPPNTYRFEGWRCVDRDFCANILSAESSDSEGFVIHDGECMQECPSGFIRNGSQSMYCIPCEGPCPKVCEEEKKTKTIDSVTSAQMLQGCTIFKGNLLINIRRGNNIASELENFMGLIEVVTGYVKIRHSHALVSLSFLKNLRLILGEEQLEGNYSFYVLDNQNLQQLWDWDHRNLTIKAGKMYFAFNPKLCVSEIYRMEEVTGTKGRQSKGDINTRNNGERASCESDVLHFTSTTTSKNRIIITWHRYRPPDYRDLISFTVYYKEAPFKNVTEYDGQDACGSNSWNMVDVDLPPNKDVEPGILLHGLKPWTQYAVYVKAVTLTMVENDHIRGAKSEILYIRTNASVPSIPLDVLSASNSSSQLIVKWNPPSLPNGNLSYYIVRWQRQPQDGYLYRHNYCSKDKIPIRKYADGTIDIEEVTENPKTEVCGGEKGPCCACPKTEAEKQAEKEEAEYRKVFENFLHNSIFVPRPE
T1 sequence (P08069 741-1367 limits assumed): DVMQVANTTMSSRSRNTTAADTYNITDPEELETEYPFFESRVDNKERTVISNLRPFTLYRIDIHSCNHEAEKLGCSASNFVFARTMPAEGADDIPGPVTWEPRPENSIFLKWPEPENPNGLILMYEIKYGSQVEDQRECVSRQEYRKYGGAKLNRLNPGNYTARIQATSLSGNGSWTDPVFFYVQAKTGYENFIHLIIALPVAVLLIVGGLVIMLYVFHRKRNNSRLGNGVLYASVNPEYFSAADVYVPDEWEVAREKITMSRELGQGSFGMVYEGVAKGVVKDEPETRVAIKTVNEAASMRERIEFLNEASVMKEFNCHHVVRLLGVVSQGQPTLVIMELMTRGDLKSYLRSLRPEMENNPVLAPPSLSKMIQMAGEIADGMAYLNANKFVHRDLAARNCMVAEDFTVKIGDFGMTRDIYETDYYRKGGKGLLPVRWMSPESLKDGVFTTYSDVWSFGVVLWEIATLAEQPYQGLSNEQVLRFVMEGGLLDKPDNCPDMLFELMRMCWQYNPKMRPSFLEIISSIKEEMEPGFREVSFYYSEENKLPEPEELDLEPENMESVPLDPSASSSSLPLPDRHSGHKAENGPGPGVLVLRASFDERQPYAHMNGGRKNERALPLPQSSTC
Sequence of Mitogen-activated protein kinase 8 (P45983 whole entry): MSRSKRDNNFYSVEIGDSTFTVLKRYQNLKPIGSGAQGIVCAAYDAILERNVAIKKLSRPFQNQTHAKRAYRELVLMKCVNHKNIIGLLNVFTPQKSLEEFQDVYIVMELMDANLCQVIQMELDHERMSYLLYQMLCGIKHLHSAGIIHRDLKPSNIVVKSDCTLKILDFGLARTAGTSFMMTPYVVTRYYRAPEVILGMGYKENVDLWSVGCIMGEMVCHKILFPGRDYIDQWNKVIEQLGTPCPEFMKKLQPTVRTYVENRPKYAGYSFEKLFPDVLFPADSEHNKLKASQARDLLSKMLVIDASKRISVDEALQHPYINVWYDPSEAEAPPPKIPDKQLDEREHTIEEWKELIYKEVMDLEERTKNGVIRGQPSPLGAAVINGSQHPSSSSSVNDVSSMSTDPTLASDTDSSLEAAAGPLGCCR
Sequence of Mitogen-activated protein kinase 10 (P53779 whole entry): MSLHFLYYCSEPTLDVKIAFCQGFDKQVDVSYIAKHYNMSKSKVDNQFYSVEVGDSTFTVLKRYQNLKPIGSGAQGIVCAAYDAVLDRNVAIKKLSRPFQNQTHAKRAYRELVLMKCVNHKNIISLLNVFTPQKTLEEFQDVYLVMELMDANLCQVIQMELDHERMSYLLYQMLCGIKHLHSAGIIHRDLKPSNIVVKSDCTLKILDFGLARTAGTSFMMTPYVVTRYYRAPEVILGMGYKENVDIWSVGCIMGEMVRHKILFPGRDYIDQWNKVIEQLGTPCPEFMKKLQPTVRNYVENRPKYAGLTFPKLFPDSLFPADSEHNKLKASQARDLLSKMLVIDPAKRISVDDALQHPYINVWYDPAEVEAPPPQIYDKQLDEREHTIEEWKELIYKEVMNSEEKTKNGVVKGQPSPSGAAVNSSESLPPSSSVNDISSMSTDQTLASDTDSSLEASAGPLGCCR
Sequence of Tyrosine-protein kinase Lyn (P07948 whole entry): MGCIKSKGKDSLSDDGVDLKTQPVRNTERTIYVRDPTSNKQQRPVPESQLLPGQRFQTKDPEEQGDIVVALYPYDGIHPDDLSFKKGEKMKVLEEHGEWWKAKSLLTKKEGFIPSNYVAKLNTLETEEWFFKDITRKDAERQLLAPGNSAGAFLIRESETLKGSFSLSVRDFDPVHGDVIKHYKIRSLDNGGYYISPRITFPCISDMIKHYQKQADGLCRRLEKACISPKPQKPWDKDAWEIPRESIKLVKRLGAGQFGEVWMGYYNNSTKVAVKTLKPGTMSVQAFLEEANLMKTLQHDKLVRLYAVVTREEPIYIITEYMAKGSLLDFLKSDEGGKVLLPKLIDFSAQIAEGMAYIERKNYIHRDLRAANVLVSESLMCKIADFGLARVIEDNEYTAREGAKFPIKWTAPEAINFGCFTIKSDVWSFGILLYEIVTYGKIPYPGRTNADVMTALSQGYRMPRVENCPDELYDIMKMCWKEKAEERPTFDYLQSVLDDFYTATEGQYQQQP

Compound | IC50 [1] | IC50 [2] | further results
CN(C)CCNC(=O)c1cccc(-c2cnc3[nH]cc(-c4cccc(NC(=O)Nc5ccc(C(F)(F)F)cc5F)c4)c3c2)c1 | 67 nM |  | 
CN(C)C(=O)c1cccc(-c2cnc3[nH]cc(-c4cccc(NC(=O)Nc5ccc(Oc6ccccc6)cc5)c4)c3c2)c1 | 2040 nM | 3070 nM | 
CN(C)CCNC(=O)c1ccc(-c2cnc3[nH]cc(-c4cccc(NC(=O)Nc5ccc(C(F)(F)F)cc5F)c4)c3c2)cc1 | 36 nM |  | 
CN(C)C(=O)c1cccc(-c2cnc3[nH]cc(-c4cccc(NC(=O)Nc5ccccc5OCc5ccccc5)c4)c3c2)c1 | 132 nM | 517 nM | 
O=C(O)CCc1ccc(-c2cnc3[nH]cc(-c4cccc(NC(=O)Nc5ccccc5Oc5ccccc5)c4)c3c2)cc1 | 210 nM | 3620 nM | 
CN(C)C(=O)c1cccc(-c2cnc3[nH]cc(-c4cccc(NC(=O)Nc5ccccc5Oc5ccccc5)c4)c3c2)c1 | 21 nM | 68 nM | 
Nc1cccc(-c2cnc3[nH]cc(-c4cccc(NC(=O)Nc5ccc(C(F)(F)F)cc5F)c4)c3c2)c1 | 242 nM |  | 
CN(C)CCNC(=O)c1cccc(-c2cnc3[nH]cc(-c4cccc(NC(=O)Nc5ccccc5Oc5ccccc5)c4)c3c2)c1 | 4 nM |  | 
O=C(Nc1cccc(Cl)c1)Nc1cccc(-c2c[nH]c3ncc(-c4ccccc4)cc23)c1 | 1020 nM |  | 
O=C(Nc1ccccc1)Nc1cccc(-c2c[nH]c3ncc(-c4ccccc4)cc23)c1 | 749 nM |  | 
Nc1ccc(-c2cnc3[nH]cc(-c4cccc(NC(=O)Nc5ccc(C(F)(F)F)cc5F)c4)c3c2)cc1 | 200 nM |  | 
NCc1ccc(-c2cnc3[nH]cc(-c4cccc(NC(=O)Nc5ccc(C(F)(F)F)cc5F)c4)c3c2)cc1 | 50 nM |  | IC50 [3]: 250 nM; IC50 [4]: 40 nM; IC50 [5]: 79 nM; IC50 [6]: 79 nM; IC50 [7]: 80 nM; IC50 [8]: 32 nM
CN(C)S(=O)(=O)c1ccc(-c2cnc3[nH]cc(-c4cccc(NC(=O)Nc5ccccc5Oc5ccccc5)c4)c3c2)cc1 |  | 20800 nM | 
CN1CCN(C(=O)c2ccc(-c3cnc4[nH]cc(-c5cccc(NC(=O)Nc6ccc(C(F)(F)F)cc6F)c5)c4c3)cc2)CC1 | 286 nM |  | 
CN(C)S(=O)(=O)c1cccc(-c2cnc3[nH]cc(-c4cccc(NC(=O)Nc5ccccc5Oc5ccccc5)c4)c3c2)c1 | 57 nM | 1120 nM | 
O=C(Nc1cccc(-c2c[nH]c3ncc(-c4ccccc4)cc23)c1)Nc1ccc(C(F)(F)F)cc1F | 1260 nM |  | 
CN(C)C(=O)c1cccc(-c2cnc3[nH]cc(-c4cccc(NC(=O)Nc5ccccc5Nc5ccccc5)c4)c3c2)c1 | 39 nM | 407 nM | 
CN1CCN(C(=O)c2cccc(-c3cnc4[nH]cc(-c5cccc(NC(=O)Nc6ccc(C(F)(F)F)cc6F)c5)c4c3)c2)CC1 | 335 nM |  | 
O=C(Nc1cccc(-c2c[nH]c3ncc(-c4cccc(C(=O)O)c4)cc23)c1)Nc1ccccc1Oc1ccccc1 | 184 nM | 1040 nM | 
CN(C)C(=O)c1cccc(-c2cnc3[nH]cc(-c4cccc(NC(=O)Nc5cccc(Oc6ccccc6)c5)c4)c3c2)c1 | 212 nM | 961 nM | 
CN(C)C(=O)c1ccc(-c2cnc3[nH]cc(-c4cccc(NC(=O)Nc5ccccc5Oc5ccccc5)c4)c3c2)cc1 | 31 nM | 128 nM | 
COc1ccc(-c2cnc3[nH]cc(-c4cccc(NC(=O)Nc5ccc(C(F)(F)F)cc5F)c4)c3c2)cc1OC | 2200 nM |  | 
NCc1ccc(-c2cnc3[nH]cc(-c4cccc(NC(=O)Nc5cccc(Cl)c5)c4)c3c2)cc1 | 20 nM |  | 
O=C(Nc1cccc(-c2c[nH]c3ncc(-c4cccc(F)c4)cc23)c1)Nc1ccc(C(F)(F)F)cc1F | 605 nM |  | 
O=C(Nc1cccc(-c2c[nH]c3ncc(-c4ccoc4)cc23)c1)Nc1ccccc1Oc1ccccc1 | 251 nM | 1260 nM | 
O=C(Nc1cccc(-c2c[nH]c3ncc(-c4ccccc4)cc23)c1)Nc1ccccc1Oc1ccccc1 | 127 nM | 693 nM | 
CN(C)CCNC(=O)c1ccc(-c2cnc3[nH]cc(-c4cccc(NC(=O)Nc5ccccc5Oc5ccccc5)c4)c3c2)cc1 | 4 nM | 415 nM | 
